Laboratory results taken from US8901118B2, “Compounds and methods for kinase modulation, and indications therefor” (Plexxikon Inc., priority 2010, dated 2014).

Key:
BCR-KIT BaF3 cells = target: T1, BCR-KIT BaF3 cells (Homo sapiens, UniProt P10721); assay: BaF3 BCR-KIT cell proliferation assay (ATPlite); format: cell-based; conditions: read-out: Inhibition of Cell Proliferation IC50, BCR/BaF3 Kit
T1 construct: fused on or other part: P11274 (Breakpoint cluster region protein)
How it was run: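 Cells are plated overnight: BaF3 at 10,000/well in G418 medium without WEHI/IL-3, MV-4-11 at 25,000/well in IMDM with 10% FBS. An 8-point 1:3 compound titration (10 μM top) is then added, and plates are incubated 3 days at 37 °C before ATPlite readout and IC50 determination.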

[1] = Relative solubility by turbidity in aqueous buffers (pH 1.5, 4.5, 6.8, 7.4); format: physicochemical; conditions: for turbidity threshold (L, M, H) 1.4: pH 1.5 (SGF); for turbidity threshold (L, M, H) 4.5: pH 4.5 (SIF); for turbidity threshold (L, M, H) 6.8: pH 6.8 (SIF); for turbidity threshold (L, M, H) 7.4: pH 7.4 (HEPES)
How it was run: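 Reported value: concentration at which optical density at 490, 535 and 650 nm passes 0.01, taken as the mean of the three wavelengths. Buffers were 0.5M NaCl pH 1.5, 0.05M NaH2PO4 pH 4.5 or 6.8, and 10 mM HEPES/150 mM NaCl pH 7.4, each receiving serial 1:1 DMSO dilutions of a 25 mM stock.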

T1 sequence (P10721 589-937): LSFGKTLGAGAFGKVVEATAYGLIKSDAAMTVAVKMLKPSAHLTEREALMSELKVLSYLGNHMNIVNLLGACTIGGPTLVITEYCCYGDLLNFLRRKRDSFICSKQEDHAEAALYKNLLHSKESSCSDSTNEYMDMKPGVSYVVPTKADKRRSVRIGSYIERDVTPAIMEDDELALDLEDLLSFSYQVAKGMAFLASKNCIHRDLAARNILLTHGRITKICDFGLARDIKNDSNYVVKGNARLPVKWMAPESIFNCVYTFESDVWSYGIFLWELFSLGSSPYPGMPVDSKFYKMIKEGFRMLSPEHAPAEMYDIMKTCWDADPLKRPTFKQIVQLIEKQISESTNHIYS

Compound	IC50 (BCR-KIT BaF3 cells) [µM]	turbidity threshold (L, M, H) 1.4 [1]	turbidity threshold (L, M, H) 4.5 [1]	turbidity threshold (L, M, H) 6.8 [1]	turbidity threshold (L, M, H) 7.4 [1]
CNc1ncnc2[nH]cc(C(=O)c3ccc(Nc4cncc(OC)c4)nc3F)c12 [Compound P-4108, [2-fluoro-6-[(5-methoxy-3-pyridyl)amino]-3-pyridyl]-[4-(methylamino)-7H-pyrrolo[2,3-d]pyrimidin-5-yl]methanone]	> 1	H (high solubility if the threshold concentration is >250 μm)	M (moderate solubility if the threshold concentration is 31.3 μM to 250 μM)	M (moderate solubility if the threshold concentration is 31.3 μM to 250 μM)	M (moderate solubility if the threshold concentration is 31.3 μM to 250 μM)
CNc1ncnc2[nH]cc(C(=O)c3ccc(NC4CCCCC4)nc3Cl)c12 [Compound P-4110, [2-chloro-6-(cyclohexylamino)-3-pyridyl]-[4-(methylamino)-7H-pyrrolo[2,3-d]pyrimidin-5-yl]methanone]	< 1	M (moderate solubility if the threshold concentration is 31.3 μM to 250 μM)	L (low solubility if the threshold concentration is <31.3 μM)	L (low solubility if the threshold concentration is <31.3 μM)	L (low solubility if the threshold concentration is <31.3 μM)
Cc1ccc(Nc2ccc(C(=O)c3c[nH]c4ncnc(NC5CCCCC5)c34)c(F)n2)cn1 [Compound P-4111, [4-(cyclohexylamino)-7H-pyrrolo[2,3-d]pyrimidin-5-yl]-[2-fluoro-6-[(6-methyl-3-pyridyl)amino]-3-pyridyl]methanone]	< 1	H (high solubility if the threshold concentration is >250 μm)	L (low solubility if the threshold concentration is <31.3 μM)	L (low solubility if the threshold concentration is <31.3 μM)	L (low solubility if the threshold concentration is <31.3 μM)

Further lines, with some results ahead:

IC50 (BCR-KIT BaF3 cells) [µM]	Compound	turbidity threshold (L, M, H) 1.4 [1]	turbidity threshold (L, M, H) 4.5 [1]	turbidity threshold (L, M, H) 6.8 [1]	turbidity threshold (L, M, H) 7.4 [1]
< 1	COc1cncc(Nc2ccc(C(=O)c3c[nH]c4ncnc(NC(C)C)c34)c(F)n2)c1 [Compound P-4106, [2-fluoro-6-[(5-methoxy-3-pyridyl)amino]-3-pyridyl]-[4-(isopropylamino)-7H-pyrrolo[2,3-d]pyrimidin-5-yl]methanone]	M (moderate solubility if the threshold concentration is 31.3 μM to 250 μM)	M (moderate solubility if the threshold concentration is 31.3 μM to 250 μM)	L (low solubility if the threshold concentration is <31.3 μM)	M (moderate solubility if the threshold concentration is 31.3 μM to 250 μM)
< 1	COc1cncc(Nc2ccc(C(=O)c3c[nH]c4ncnc(NC5CC5)c34)c(F)n2)c1 [Compound P-4107, [4-(cyclopropylamino)-7H-pyrrolo[2,3-d]pyrimidin-5-yl]-[2-fluoro-6-[(5-methoxy-3-pyridyl)amino]-3-pyridyl]methanone]	M (moderate solubility if the threshold concentration is 31.3 μM to 250 μM)	M (moderate solubility if the threshold concentration is 31.3 μM to 250 μM)	M (moderate solubility if the threshold concentration is 31.3 μM to 250 μM)	M (moderate solubility if the threshold concentration is 31.3 μM to 250 μM)
< 1	CC(C)Nc1ncnc2[nH]cc(C(=O)c3ccc(NC4CCCCC4)nc3Cl)c12 [Compound P-4109, [2-chloro-6-(cyclohexylamino)-3-pyridyl]-[4-(isopropylamino)-7H-pyrrolo[2,3-d]pyrimidin-5-yl]methanone]	L (low solubility if the threshold concentration is <31.3 μM)	L (low solubility if the threshold concentration is <31.3 μM)	L (low solubility if the threshold concentration is <31.3 μM)	L (low solubility if the threshold concentration is <31.3 μM)
